Where two headings read alike, the source gives them in different places.
Key:
[1] = biological target: T1, HSP72 (Homo sapiens, UniProt P0DMV8); experiment: FP competition assay, displacement of bisaryl-ATTO-488 11 from primary HSP72 protein; format: binding
T1 construct: made in house
Method: (§1) To assess what effect the secondary HSP72/BAG1 complex had on the apparent affinity of the non-nucleotide bisaryl-ATTO-488 FP-probe 11, we carried out a similar BAG1 study. […] To confirm that the binding of BAG1 to HSP72 was not mutually exclusive, we screened the nucleotides ADP and ATP in a competition assay with bisaryl-ATTO-488 11 and HSP72 at a 50% bound fraction, with and without a saturating concentration of BAG1 (700 nM) (Fig. S7, ESI ^†). […]
(§2) TRIS Tris(hydroxymethyl)aminomethane
(§3) General Information: Unless otherwise stated the aqueous assay buffer contained 50 mM TRIS base pH 7.4, 150 mM NaCl, 6 mM MgCl2, 1 mM DTT, 0.1% (wt/wt) CHAPS. The assay was conducted using 384 Plus F ProxiPlates (PerkinElmer) with a final assay volume of 10 μL. Plates were centrifuged at 1000 rpm for 1 minute prior to incubation and read using an 2103 Envision Multilable Plate Reader. Excitation and emission wavelengths used for green probes were 480 nm and 535 nm, respectively.
Fluorescence polarisation was measured in units of millipolarization (mP). All experiments were performed in triplicate, unless otherwise stated. Data were plotted and analysed using GraphPad Prism 6, graphical data represents the mean ± standard error of the mean for a single representative experiment. ATP-derived fluorescent probes (1.0 mM in aqueous) were purchased from Jena Bioscience. Human BAG-1M (10.9 μM in 20 mM TRIS base pH 7.4, 100 mM NaCl, 1 mM DTT, 1% (v/v) glycerol) was purchased from Enzo Life Sciences. […]
Compound IC50 determination: Compounds (0.2 μL at 50 x screening concentration in DMSO) were dispensed using an ECHO 550 Liquid Handler (Labcyte Inc.). To the corresponding wells was added, 5 μL of probe molecule (20 nM in assay buffer) and 5 μL of protein (two times their final concentration in assay buffer) to give a 50% bound fraction. Tracer controls (10 nM probe molecule only) and bound tracer controls (10 nM probe in the presence of appropriate protein concentration) were included on each assay plate. IC50 determination was performed using non-linear least squares curve fitting (GraphPad Prism 6, log(inhibitor) vs. response— variable slope (four parameters)). […]
(§4) Compound screen with and without BAG-1: Compounds (0.2 μL at 50 x screening concentration in DMSO) were dispensed using an ECHO 550 Liquid Handler (Labcyte Inc.). To the corresponding wells was added, 5 μL of probe molecule (20 nM in assay buffer), 2.5 μL of HSP72 (four times final concentration in assay buffer) and either 2.5 µL of BAG-1 (2.8 µM in 20 mM TRIS base pH 7.4, 100 mM NaCl, 1 mM DTT, 1% (v/v) glycerol) or 2.5 µL of BAG1 replacement buffer (20 mM TRIS base pH 7.4, 100 mM NaCl, 1 mM DTT, 1% (v/v) glycerol). The assay was performed in duplicate. Tracer controls (10 nM probe molecule only) and bound tracer controls (10 nM probe in the presence of appropriate protein concentration) were included on each assay plate.
IC50 determination was performed using non-linear least squares curve fitting (GraphPad Prism 6, log(inhibitor) vs. response— variable slope (four parameters)).
Fig. S1. Determination of assay binding window for bisaryl-ATTO-488 and ATP-ATTO-488. Polarisation values (mP) for 2-63 nM ATP-ATTO-488 (red) and bisaryl ATTO-488 (blue) in the presence (▼) and absence (▲) of 5 µM HSP72, ↔ represents the assay window at 10 nM probe concentration. All data points were tested in triplicate and are represented as the arithmetic mean ±

[2] = biological target: T2, HSP72/BAG1 complex (Homo sapiens, UniProt P0DMV8); experiment: FP competition assay, displacement of bisaryl-ATTO-488 11 from secondary HSP72/BAG1 complex; format: binding; conditions: for change in affinity for HSP72/BAG1 complex compared to primary protein: 700 nM BAG1
T2 construct: purchased Enzo Life Sciences (BAG-1M only)
T2 sequence (P0DMV8 whole entry): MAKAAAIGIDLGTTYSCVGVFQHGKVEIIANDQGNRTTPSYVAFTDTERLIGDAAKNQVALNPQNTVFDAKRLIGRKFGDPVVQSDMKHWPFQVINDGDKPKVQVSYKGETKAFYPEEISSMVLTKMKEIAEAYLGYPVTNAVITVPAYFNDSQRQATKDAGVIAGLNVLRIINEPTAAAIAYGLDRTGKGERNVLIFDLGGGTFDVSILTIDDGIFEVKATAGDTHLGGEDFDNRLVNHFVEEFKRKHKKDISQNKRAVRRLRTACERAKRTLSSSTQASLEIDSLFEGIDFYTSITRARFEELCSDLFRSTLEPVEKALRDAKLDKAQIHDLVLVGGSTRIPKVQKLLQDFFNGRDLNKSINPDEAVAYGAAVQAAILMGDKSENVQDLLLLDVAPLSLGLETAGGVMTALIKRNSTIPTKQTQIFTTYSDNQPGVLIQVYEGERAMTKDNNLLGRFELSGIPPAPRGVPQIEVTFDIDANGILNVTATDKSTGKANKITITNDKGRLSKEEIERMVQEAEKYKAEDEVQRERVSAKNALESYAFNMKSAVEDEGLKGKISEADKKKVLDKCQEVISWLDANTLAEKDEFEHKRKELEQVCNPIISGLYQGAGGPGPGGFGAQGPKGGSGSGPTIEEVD
T2 sequence (Q99933 72-345 partner limits assumed): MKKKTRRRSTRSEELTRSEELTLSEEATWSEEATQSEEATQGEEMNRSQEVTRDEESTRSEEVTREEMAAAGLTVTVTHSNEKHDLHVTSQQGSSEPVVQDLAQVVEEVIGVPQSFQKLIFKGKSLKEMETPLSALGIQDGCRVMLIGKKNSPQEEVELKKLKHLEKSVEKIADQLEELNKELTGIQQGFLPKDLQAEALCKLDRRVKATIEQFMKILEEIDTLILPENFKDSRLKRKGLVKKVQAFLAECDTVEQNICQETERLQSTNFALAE
Method: as §1, §4
IC50 determination was performed using non-linear least squares curve fitting (GraphPad Prism 6, log(inhibitor) vs. response— variable slope (four parameters)). […]
Fig. S8. Representative competitive binding curves for ADP (A), ATP (B), compound 12 (C) and compound 13 (D) in the presence and absence of BAG1. Competition experiments in the presence of BAG1 (red) were performed using 10 nM biaryl-ATTO-488, 700 nM BAG1 and 140 nM HSP70 to give a 50% bound fraction. Competition experiments in the absence of BAG1 (blue) were performed using 10 nM biaryl-ATTO-488 and 180 nM HSP70 to give a 50% bound fraction. IC50 determination was performed using non-linear regression analysis (log(inhibitor) vs. response - Variable slope (four parameters)), all data points were tested in duplicate and are represented as the arithmetic mean ± SEM.

[3] = biological target: HSP72-NBD; design: method as in PMID 19256508; conditions: reported affinity for HSP72-NBD by surface-plasmon resonance; cited from earlier work
[4] = biological target: T1, HSP72; experiment: FP assay binding window and Z' determination
Text: As a result, the assay was not statistically robust, so could not be used in competition experiments (Z′ = 0.36).[11],[20],[21] We hypothesised that the high lipophilicity of 10 (clog P = 6.9) was causing the small binding window, either due to aggregation, even at very low concentrations, or its large hydrate volume.[22] Because the lipophilicity of the specific-ligand portion of the probe was fixed by the need for high affinity to the HSP70 target, we focused on changes to the solvent exposed fluorophore. ATTO-488, a green-shifted fluorophore that contains two sulfonic acid groups, was selected as an alternative to fluorescein (see ESI ^†), as this reduced the clog P of the bisaryl probe 11 to –3.9.[21] The binding window of ATTO-488 bisaryl FP-probe 11 measured at a fixed and apparently saturating concentration of HSP72 (5 μM), was now greater than 150 mP (Z′ = 0.63, Fig. 3A and Fig. S1, ESI ^†). […]
as §2, §3
Fluorescence polarisation was measured in units of millipolarization (mP). All experiments were performed in triplicate, unless otherwise stated. Data were plotted and analysed using GraphPad Prism 6, graphical data represents the mean ± standard error of the mean for a single representative experiment. ATP-derived fluorescent probes (1.0 mM in aqueous) were purchased from Jena Bioscience. Human BAG-1M (10.9 μM in 20 mM TRIS base pH 7.4, 100 mM NaCl, 1 mM DTT, 1% (v/v) glycerol) was purchased from Enzo Life Sciences.
Determination of optimal probe concentration: To each well, 5 μL of HSP72 (10 µM in assay buffer) or 5 μL assay buffer and increasing concentrations of probe (5 μL, two-fold dilution series) were added. Fluorescence polarisation values for the tracer ± protein were plotted using GraphPad prism 6. […]
Z’ determination: To each well, 5 µL of probe (20 nM in assay buffer) and either 5 µL of HSP70 (in assay buffer) or 5 µL of assay buffer were added. Fluorescent polarisation values from 96 wells were used to calculate the mean and standard deviation for each data set. Z’-factors were calculated using the equation given below (sample refers to probe in the absence of protein and control refers to probe in the presence of protein). […]

[5] = 180 nM HSP72, 10 nM probe 11, BAG1 buffer, 16 h incubation, geometric mean of at least 3 experiments, read-out: IC50 –BAG1
[6] = 700 nM BAG1, 140 nM HSP72, 10 nM probe 11, 16 h incubation, geometric mean of at least 3 experiments, read-out: IC50 +BAG1

T1 sequence (P0DMV8 whole entry): as the sequence (P0DMV8 whole entry) above

Which IC50 [1, 5] does the source give for `Nc1ncnc2c1ncn2[C@@H]1O[C@H](COP(=O)(O)OP(=O)(O)O)[C@@H](O)[C@H]1O` [ADP] here?
The IC50 was 330 nM.

And the IC50 [2, 6]?
Its IC50 is 2200 nM.

And the pIC50 ([2]; 700 nM BAG1, n = 3)?
The pIC50 was 5.66 ± 0.04.

What about the “decrease in affinity for the secondary complex compared to primary HSP72” value ([2]; 700 nM BAG1 vs without BAG1) of the same compound?
Its value is 6.8 fold.

For `Nc1ncnc2c1ncn2[C@@H]1O[C@H](COP(=O)(O)OP(=O)(O)OP(=O)(O)O)[C@@H](O)[C@H]1O` [ATP], which IC50 [1, 5] is on record?
The IC50 was 650 nM.

What about the IC50 [2, 6] of the same compound?
The IC50 was greater than 10000 nM.

For `Nc1ncnc2c1nc(NCc1ccc3ncccc3c1)n2[C@@H]1O[C@H](COCc2ccc(C(F)(F)F)cc2)[C@@H](O)[C@H]1O` [compound 2], which Kd [3] is on record?
The Kd was 60 nM.

What about the IC50 ([1]; competition with FP-probe 11, HSP72, n = 3, read-out: pIC50 (converted)) of the same compound?
The IC50 was 135 nM.

And the IC50 ([1]; competition with FP-probe 11, HSP72, read-out: IC50)?
The IC50 was 137 nM.

With `O=C(NCCCCCCNc1ncnc2c1nc(NCc1ccc3ncccc3c1)n2[C@@H]1O[C@H](COCc2ccc(C(F)(F)F)cc2)[C@@H](O)[C@H]1O)c1ccc(C(=O)O)c(-c2c3ccc(=O)cc-3oc3cc(O)ccc23)c1` [compound 10] as the compound, how does the “Z'” value ([4]; FP assay with HSP72) read?
The value was 0.36.

What about the “assay (binding) window” value ([4]; presence vs absence of 5 μM HSP72) of the same compound?
Its value is roughly 30 mP.

Which IC50 [1, 5] does the source give for `Nc1ncnc2c1nc(NCc1ccc3ncccc3c1)n2[C@@H]1O[C@H](CO)[C@@H](O)[C@H]1O` [compound 12] here?
The IC50 was 2000 nM.

And the “change in affinity for HSP72/BAG1 complex compared to primary protein” value [2]?
The value was “no significant change”.

What about the IC50 [2, 6] of the same compound?
The IC50 was 2000 nM.

With `NC(=O)c1cn([C@@H]2O[C@H](CO)[C@@H](O)[C@H]2O)c2ncnc(N)c12` [compound 13, sangivamycin] as the compound, how does the IC50 [1] read?
The IC50 was 2400 nM.

And the IC50 [2]?
The IC50 was 1000 nM.

And the “change in affinity for HSP72/BAG1 complex compared to primary protein” value [2]?
Its value is “no significant change”.

— PMC5708526, “Targeting secondary protein complexes in drug discovery: studying the druggability and chemical biology of the HSP70/BAG1 complex” (Chemical Communications (Cambridge, England), 2017)
